One assay relates to SK-MEL-28 cells. The assay is described as follows: Inhibitory activity against cancer cells (MTT cell viability), SK-MEL-28. The conditions noted are these: Homo sapiens, SK-MEL-28, 48 hr incubation. The format is cell-based. The protocol: (§1) The inhibitory activities of biguanide derivatives against cancer cells were evaluated in the cell line SK-MEL-28 derived from human Melanoma cell, Miapaka-2 cell line derived from human pancreatic cancer cell and HCT116 cell line derived from human colorectal cancer cell by measuring the concentration that inhibits 50% of the growth of the cell lines (the half maximal inhibitory concentration, IC50).
(§2) Firstly, SK-MEL-28 cells were grown to be density of 5,000 cells/well in RPMI-1640 media supplemented with 10% (v/v) bovine calf serum, on 96-well plates for 16 hr. To measure the IC50 of each compound, the cells were incubated for 48 hr with the 100 mM PBS stock compounds at an amount of 10 mM, 1 mM, 200 uM, 40 uM, 8 uM, 1.6 uM, 0.32 uM or 0.064 uM; 50 mM PBS and EtOH stock compounds at an amount of 1 mM, 200 uM, 40 uM, 8 uM, 1.6 uM, 0.32 uM and 0.064 uM; and 50 mM DMSO stock compounds at an amount of 100 uM, 25 uM, 6.25 uM, 1.56 uM, 0.39 uM, 0.10 uM and 0.02 uM, respectively. To test the viable cells after incubation with each compound, the cell cultures were incubated additionally for 2 hr in the presence of MTT. The produced formazan crystals were dissolved with dimethyl sulfoxide and then measured by detecting the absorbance at 560 nm.
(§3) After the 48 hr incubation, the viable cells were counted on the well plates treated with the compounds of the Examples relative to the count of the viable cells on the non-treated plates, and then was represented as the cell viability (%). By using the cell viability (%) result, the cell viability curve was plotted, and IC50 was calculated from the curve to evaluate the inhibitory activity against cancer cells.

The next assay concerns Miapaca-2 cell. The assay is described as follows: Inhibitory activity against cancer cells (MTT cell viability), Miapaca-2. The format is cell-based. The conditions noted are these: Homo sapiens, MIA PaCa-2, Miapaca-2, 48 hr incubation. Here is the method: as §1, §2, §3
(§4) The inhibitory activities of biguanide derivatives against cancer cells of Miapaca-2 cell and HCT116 cell were evaluated according to the substantially same method as described in SK-MEL-28 cell, except that DMEM media supplemented with 10% (v/v) bovine calf serum was used instead of RPMI-1640 media supplemented with 10% (v/v) bovine calf serum for SK-MEL-28 cell.

Another assay has as its system HCT116 cell. Kind of assay: Inhibitory activity against cancer cells (MTT cell viability), HCT116. It counts as cell-based, human. The conditions noted are these: HCT 116, 48 hr incubation. Here is the method:
as §1, §2, §3, §4

Assay [1] relates to lung cancer cell line A549. Kind of assay: Inhibitory activity on Oxygen Consumption Rate (OCR). The format is cell-based. The conditions noted are these: A549, 3 hrs, 10 uM compound; phenformin set to 100%, untreated control set to 0%. The protocol: The cellular metabolic activity of the compounds on Oxygen Consumption Rate (OCR) was evaluated, because the biguanide drugs have anticancer activity by inhibiting the oxidative phosphorylation of cancer cell.
A549 cells were inoculated at 5×10^3 cells in RPMI1640 media on XF96 cell culture plate and cultured for 24 h (temp; 37° C., 5% CO2) to make the cell adhere to the plate.
After 24 hr, A549 cells were treated by 10 μM of the compounds or phenformin, and were washed with XF analysis media using Prep station to remove the original media. A549 cells were retreated by compounds or phenformin and incubated for 1 hr (temp; 37° C., Non-CO2) in Prep station. While incubation in Prep station, sensor cartridge was calibrated for 1 hr. Then, the calibrated sensor cartridge was inserted to the cell plate to analyze OCR.
When OCR of phenformin as a reference drug was set to 100% and OCR of untreated control was set to 0%, the OCR of tested compounds was calculated by converting the measured OCR to be the relative percentage value (%).

In the case of `N=C(NCc1ccc2c(c1)OCO2)NC(=N)N1CCCC1` [Example 1, N1-pyrrolidine-N5-(benzo[1,3]dioxol-5-ylmethyl) biguanide], the half-inhibitory concentration (IC50) is 107 µM with SK-MEL-28 cells, 36.2 µM with Miapaca-2 cell and above 100 µM with HCT116 cell (Homo sapiens).
On to `CC(C)c1ccc(NC(=N)NC(=N)N2CCCC2)cc1.Cl` [Example 6, N1-pyrrolidine-N5-(4-isopropyl)phenyl biguanide], for which, in assay [1], the “OCR inhibition relative to phenformin (%)” value is recorded as 44%. It took 28.6 µM to reach half-maximal inhibition in the assay with HCT116 cell (Homo sapiens) (IC50).
In the case of `N=C(NC(=N)N1CCCC1)Nc1ccc2c(c1)CCCC2` [Example 14, N1-pyrrolidine-N5-(5,6,7,8-tetrahydronaphthalene-2-yl) biguanide], the concentration for half-maximal inhibition (IC50) is 29.5 µM in the assay on SK-MEL-28 cells, 26.6 µM in the assay with Miapaca-2 cell and above 100 µM in the assay with HCT116 cell (Homo sapiens).
On to `C[C@H]1CCCN1C(=N)NC(=N)Nc1ccc(OC(F)(F)F)cc1.Cl` [Example 16], for which the “OCR inhibition relative to phenformin (%)” value in assay [1] was 13%. Half-maximal inhibition in the assay with HCT116 cell (Homo sapiens) (IC50) was put at 39.8 µM.
Regarding `N=C(NC(=N)N1CC[C@H](O)C1)Nc1ccc(OC(F)(F)F)cc1` [Example 17, N1-(S)-3-hydroxy pyrrolidine-N5-(4-trifluoromethoxy)phenyl biguanide], the results for the IC50 in the assay on SK-MEL-28 cells, in the assay with Miapaca-2 cell and in the assay on HCT116 cell (Homo sapiens) were 184 µM, 113 µM and above 100 µM, respectively.
As to `Cl.N=C(NC(=N)N1CCC(O)CC1)Nc1ccc(OC(F)(F)F)cc1` [Example 18, N1-4-hydroxy piperidine-N5-(4-trifluoromethoxy)phenyl biguanide], the half-maximal inhibitory concentration (IC50) in the assay with SK-MEL-28 cells is 182 µM; with Miapaca-2 cell, 47.9 µM; in the assay with HCT116 cell (Homo sapiens), above 100 µM. Further, the “OCR inhibition relative to phenformin (%)” value in assay [1] stood at 57%.
In the case of `Cl.N=C(NC(=N)N1CCC(CO)C1)Nc1ccc(OC(F)(F)F)cc1` (centres unmarked) [Example 20, N1-3-hydroxy methyl pyrrolidine-N5-(4-trifluoromethoxy)phenyl biguanide], the 50% inhibitory concentration (IC50) was 134 µM in the assay on SK-MEL-28 cells, 58.6 µM with Miapaca-2 cell and above 100 µM in the assay on HCT116 cell (Homo sapiens). For the same compound, the “OCR inhibition relative to phenformin (%)” value in assay [1] is 15%.
Turning to `Cl.N=C(NC(=N)N1CCC(O)CC1)Nc1cccc(Oc2ccccc2)c1` [Example 22, N1-4-hydroxy piperidine-N5-(3-phenoxy)phenyl biguanide], the “OCR inhibition relative to phenformin (%)” value in assay [1] turned out to be 74%. The compound further displayed an IC50 in the assay with Miapaca-2 cell of 106 µM.
As to `N=C(NC(=N)N1CCCC1)Nc1ccc(C(N)=O)cc1` [Example 23, N1-pyrrolidine-N5-4-benzamide biguanide], the IC50 in the assay on SK-MEL-28 cells was above 1000 µM; with Miapaca-2 cell, 2340 µM; with HCT116 cell (Homo sapiens), above 100 µM.
On the same counts, the results for `N=C(NC(=N)N1CCCC1)Nc1ccc(/C=C/C(=O)N2CCCCC2)cc1` [Example 24, (E)-N—(N-(4-(3-oxo-3-(piperidin-1-yl)prop-1-enyl)phenyl)carbamimidoyl)pyrrolidine-1-carboximidamide] are above 100 µM, above 100 µM and above 100 µM.
Consider `N=C(NC(=N)N1CCCC1)Nc1ccc(SCC(=O)N2CCCCC2)cc1` [Example 28, N—(N-(4-(2-oxo-2-(piperidin-1-yl)ethylthio)phenyl)carbamimidoyl)pyrrolidine-1-carboximidamide], for which the IC50 with SK-MEL-28 cells was 176 µM; with Miapaca-2 cell, 209 µM; in the assay on HCT116 cell (Homo sapiens), above 100 µM.
Turning to `CN1CCN(C(=N)NC(=N)Nc2ccc(F)c(OC(F)(F)F)c2)CC1.Cl` [Example 40, N1-4-methyl piperazine-N5-(4-fluoro-3-trifluoromethoxy)phenyl biguanide], in assay [1], the “OCR inhibition relative to phenformin (%)” value is given as 42.9%. In the assay on HCT116 cell (Homo sapiens), this compound gave an IC50 of 35.2 µM.
As for `CS(=O)(=O)C1CCN(C(=N)NC(=N)Nc2ccc(OC(F)(F)F)cc2)CC1` [Example 53, N1-4-(methylsulfonyl)piperidine-N5-(4-trifluoromethoxy)phenyl biguanide], the IC50 in the assay on SK-MEL-28 cells was above 100 µM; with Miapaca-2 cell, above 100 µM; in the assay on HCT116 cell (Homo sapiens), 182 µM.
As for `Cl.N=C(NC(=N)N1CCc2ccccc2C1)N1CCCC1` [Example 89, N-(imino(pyrrolidin-1-yl)methyl)-3,4-dihydroisoquinoline-2(1H)-carboximidamide], the “OCR inhibition relative to phenformin (%)” value in assay [1] was found to be 44%. For the same compound, 59.5 µM corresponded to half-maximal inhibition in the assay on HCT116 cell (Homo sapiens) (IC50).
Take `N=C(Nc1nc2cc(F)ccc2[nH]1)N1CCCC1` [Example 93, N-(5-fluoro-1H-benzo[d]imidazol-2-yl)pyrrolidine-1-carboximidamide]: the concentration for half-maximal inhibition (IC50) with HCT116 cell (Homo sapiens) is above 100 µM.
Same read-out and setting: in the case of `Cc1ccc2[nH]c(NC(=N)N3CCCC3)nc2c1` [Example 94, N-(5-methyl-1H-benzo[d]imidazol-2-yl)pyrrolidine-1-carboximidamide] it was above 100 µM.
On the same count and under the same terms, the value for `COc1ccc2[nH]c(NC(=N)N3CCCC3)nc2c1` [Example 95, N-(5-methoxy-1H-benzo[d]imidazol-2-yl)pyrrolidine-1-carboximidamide] was above 100 µM; that for `N=C(Nc1nc2ccccc2[nH]1)N1CCCC1` [Example 96, N-(1H-benzo[d]imidazol-2-yl)pyrrolidine-1-carboximidamide] was above 100 µM.
As for `[H]/N=C(/N)N/C(=N/[H])NCCc1ccccc1` [Phenformin, phenformin, reference compound], the half-maximal inhibitory concentration (IC50) worked out at 266 µM with SK-MEL-28 cells, 119 µM in the assay with Miapaca-2 cell and 12.5 µM in the assay with HCT116 cell (Homo sapiens).
In turn, “N1-3-phenoxyphenyl-N5-(4-trifluoromethoxy)phenyl biguanide [Example 76]” yielded an IC50 in the assay on HCT116 cell of 3.12 µM.

As a reminder, the IC50 is the concentration at which inhibition is half-maximal. Low readings indicate inhibition by little substance, high ones a need for much substance.

The values above are taken from US10221190B2, “Biguanide compounds and use thereof” (IMMUNOMET THERAPEUTICS INC., priority 2013, dated 2019).
